Tests used:
[1] = target: Myc-GyrB-FGFR fusion protein (Homo sapiens, UniProt P11362); experiment: Biochemical FGFR assay (ELISA); settings: read-out: bio fgfR1 IC50
PDGFR-β = target: T1, PDGFR-β (Homo sapiens, UniProt P09619); experiment: Biochemical PDGFR assay (ELISA, PDGFR-β expressing NIH 3T3 cell lysate); settings: read-out: bio PDGF IC50
T1 construct: host or cells: NIH 3T3
Procedure, shortened: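 Phosphorylation was read by ELISA (anti-phosphotyrosine serum, peroxidase secondary, ABTS at 410 nm) after a 30 min room-temperature reaction with 20 μM ATP, EDTA-stopped. Kinase was lysate-derived PDGFR-β (NIH 3T3) immobilised via 28D4C10 antibody, compound added 30 min before ATP.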

human flk-1 = target: T2, human flk-1 (Homo sapiens, UniProt P35968); experiment: Biochemical FLK-1 assay (flk-1 autophosphorylation ELISA); settings: read-out: bio FLK1 IC50 (μM) % if inhibition at 100
T2 construct: host or cells: Flk-1/NIH cells (NIH fibroblasts)
T2 sequence (P35968 20-1356): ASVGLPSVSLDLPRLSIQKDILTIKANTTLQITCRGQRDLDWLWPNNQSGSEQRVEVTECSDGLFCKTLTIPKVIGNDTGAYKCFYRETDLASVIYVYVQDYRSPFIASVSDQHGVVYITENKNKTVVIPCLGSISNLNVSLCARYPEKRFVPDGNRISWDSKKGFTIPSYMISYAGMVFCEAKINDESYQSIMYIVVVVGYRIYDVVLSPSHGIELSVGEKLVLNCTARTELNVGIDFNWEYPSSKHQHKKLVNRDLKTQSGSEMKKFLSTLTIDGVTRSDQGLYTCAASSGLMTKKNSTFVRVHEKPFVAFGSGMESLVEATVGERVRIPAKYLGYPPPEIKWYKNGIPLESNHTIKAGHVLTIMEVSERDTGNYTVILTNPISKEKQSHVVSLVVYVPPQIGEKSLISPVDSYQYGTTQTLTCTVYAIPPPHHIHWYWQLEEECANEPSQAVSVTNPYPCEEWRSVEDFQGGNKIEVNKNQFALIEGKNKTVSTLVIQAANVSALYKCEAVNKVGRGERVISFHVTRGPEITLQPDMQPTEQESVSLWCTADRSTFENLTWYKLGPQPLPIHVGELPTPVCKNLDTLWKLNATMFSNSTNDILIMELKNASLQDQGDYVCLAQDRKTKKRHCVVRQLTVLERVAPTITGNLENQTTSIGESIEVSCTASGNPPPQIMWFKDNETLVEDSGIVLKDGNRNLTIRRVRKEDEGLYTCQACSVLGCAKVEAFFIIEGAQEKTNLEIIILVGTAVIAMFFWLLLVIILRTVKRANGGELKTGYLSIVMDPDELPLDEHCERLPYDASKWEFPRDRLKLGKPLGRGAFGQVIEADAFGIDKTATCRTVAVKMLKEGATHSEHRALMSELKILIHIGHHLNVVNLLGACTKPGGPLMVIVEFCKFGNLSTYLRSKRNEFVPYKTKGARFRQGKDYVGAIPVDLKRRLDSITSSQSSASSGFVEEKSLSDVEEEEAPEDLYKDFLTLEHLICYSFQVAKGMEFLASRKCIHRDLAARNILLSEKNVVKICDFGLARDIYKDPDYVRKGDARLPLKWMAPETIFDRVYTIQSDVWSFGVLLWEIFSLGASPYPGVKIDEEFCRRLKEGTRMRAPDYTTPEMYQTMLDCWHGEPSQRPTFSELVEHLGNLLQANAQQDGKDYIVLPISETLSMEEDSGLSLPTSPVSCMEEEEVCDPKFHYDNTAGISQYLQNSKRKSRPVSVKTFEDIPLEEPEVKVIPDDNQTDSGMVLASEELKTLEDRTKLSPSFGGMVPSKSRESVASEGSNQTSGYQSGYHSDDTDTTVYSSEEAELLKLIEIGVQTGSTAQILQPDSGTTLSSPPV
Description: This assay evaluates flk-1 autophosphorylation activity in vitro using ELISA.
Materials And Reagents • 1. 15 cm tissue culture dishes • 2. Flk-1/NIH cells: NIH fibroblast line over-expressing human flk-1clone 3 (SUGEN, Inc., obtained from MPI, Martinsried, Germany). • 3. Growth medium: DMEM plus heat inactivated 10% FBS and 2 mM Glutamine (Gibco-BRL). • 4. Starvation medium: DMEM plus 0.5% heat-inactivated FBS, 2 mM Glutamine (Gibco-BRL). • 5. […] L4 or E38 monoclonal antibody specific for flk-1, Purified by Protein-A agarose affinity chromatography (SUGEN, Inc.). • 7. PBS (Dulbecco's Phosphate-Buffered Saline) Gibco Cat. No. 450-1300EB). • 8. HNTG (see BIOCHEMICAL FGFR for preparation). • 9. Pierce BCA protein determination kit. • 10. Blocking buffer • 11. TBST (pH 7.0) • 12. Kinase Buffer • 13. Kinase Stop Solution: 200 mM EDTA. • 14. […] AB kit (Vector Laboratories Cat. No. PK 4000). • 16. DMSO • 17. NUNC 96-well V bottom polypropylene plates (Applied Scientific Cat. No. AS-72092). • 18. Turbo-TMB (Pierce). • 19. Turbo-TMB stop solution: 1 M H2SO4. • 20. ATP (Sigma Cat. No. A-7699). • 21. 20% DMSO in TBS (pH 7.0). Procedure
Cell Growth and Lysate Preparation. • 1. Seed cell into growth medium and grow for 2-3 days to 90-100% confluency at 37° C. and 5% CO2.
2. Remove the medium and wash the cells twice with PBS. Lyse with HNTG lysis buffer. Collect all lysates and vortex mix them for 20-30 seconds. • 3. Remove insoluble material by centrifugation (5-10 min at about 10,000 ×g). • 4. Determine the protein concentration using BCA kit. • 5. Partition lysate into 1 mg aliquots, store at −80° C.
Assay Procedure • 1. Coat Corning 96-well ELISA plates with 2 μg/well purified L4 (or E 38) in 100 μl of PBS. Store overnight at […] • 2. Remove unbound proteins from wells by inverting the plate to remove the liquid. Wash one time with dH2O, pat plate on paper towel to remove excess liquid. • 3. Block plates with 150 μl blocking buffer per well. Incubate for 45-60 minutes with shaking at 4° C. • 4. Remove the blocking buffer and wash the ELISA plate three times with dH2O and one time with TBST. Pat plate on paper towel to remove excess liquid. • 5. Dilute lysate in PBS to give final concentration of 50 μg/100 μl. Add 100 μl of diluted lysate to each well. Incubate with shaking at 4° C. overnight. • 6. Remove unbound proteins from wells by inverting the plate. Wash as in step 4. • 7. Add 80 μl of kinase buffer to wells (90 μl to negative control wells). • 8. Dilute test compounds (normally 10-fold) into wells of a polypropylene plate containing 20% DMSO in TBS. • 9. Add 10 μl of the diluted compounds to the ELISA wells containing immobilized flk-1 and shake. Control wells receive no compounds. • 10. From stock 1 mM ATP, prepare 0.3 mM ATP solution in dH2O (alternatively, kinase buffer may be used). • 11. Add 10 μl of 0.3 mM ATP to all wells except the negative controls. Incubate for 60 min. at room temperature with shaking. • 12. After 1 hr stop the kinase reaction by adding 11 μl 200 mM EDTA. Shake for 1-2 min. • 13. Wash the ELISA plate 4 times with dH2O and twice with TBST. • 14. Add 100 μl of 1:5000 biotinylated 4G10:TBST to all wells. Incubate 45 min with shaking at room temperature. • 15. While the above is incubating, add 50 μl of solutions A & B from the ABC kit to 10 ml of TBST. These solutions must be combined approximately 30 min prior to use. • 16. Wash plates as in step 4. • 17. Add 100 μl of the preformed A & B complex to all wells. Incubate 30 min with shaking at room temperature. • 18. Wash plates as in step 4. • 19. Add 100 μl turbo-TMB. Shake at room temperature for 10-15 min. • 20. When the color in the positive control wells reaches an absorbance of about 0.35-0.4, stop the reaction with 100 μl of turbo-TMB stop solution. • 21. Read plates on Dynatech MR7000 ELISA reader, test filter: 450 nM, reference filter: 410 nM.

flkGST = target: T3, flkGST (Homo sapiens, UniProt P35968); experiment: bio flkGST assay; assay type: biochemical
T3 construct: GST
T3 sequence (P35968 786-1356 limits assumed): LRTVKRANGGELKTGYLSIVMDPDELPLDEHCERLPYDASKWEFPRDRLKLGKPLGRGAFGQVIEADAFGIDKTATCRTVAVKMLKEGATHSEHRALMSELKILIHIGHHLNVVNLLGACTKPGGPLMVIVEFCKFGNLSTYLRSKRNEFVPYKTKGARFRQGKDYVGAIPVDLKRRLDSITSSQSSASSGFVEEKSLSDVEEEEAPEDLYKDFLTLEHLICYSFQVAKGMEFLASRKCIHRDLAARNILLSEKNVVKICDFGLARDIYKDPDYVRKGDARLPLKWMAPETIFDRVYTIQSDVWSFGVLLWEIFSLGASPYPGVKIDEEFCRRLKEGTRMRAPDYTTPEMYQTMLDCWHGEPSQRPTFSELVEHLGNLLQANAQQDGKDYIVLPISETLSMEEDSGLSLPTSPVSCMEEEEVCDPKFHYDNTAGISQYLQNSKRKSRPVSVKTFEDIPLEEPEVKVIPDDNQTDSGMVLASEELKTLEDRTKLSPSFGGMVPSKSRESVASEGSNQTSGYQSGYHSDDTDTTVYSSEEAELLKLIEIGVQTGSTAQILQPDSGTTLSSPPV

T1 sequence (P09619 33-1106): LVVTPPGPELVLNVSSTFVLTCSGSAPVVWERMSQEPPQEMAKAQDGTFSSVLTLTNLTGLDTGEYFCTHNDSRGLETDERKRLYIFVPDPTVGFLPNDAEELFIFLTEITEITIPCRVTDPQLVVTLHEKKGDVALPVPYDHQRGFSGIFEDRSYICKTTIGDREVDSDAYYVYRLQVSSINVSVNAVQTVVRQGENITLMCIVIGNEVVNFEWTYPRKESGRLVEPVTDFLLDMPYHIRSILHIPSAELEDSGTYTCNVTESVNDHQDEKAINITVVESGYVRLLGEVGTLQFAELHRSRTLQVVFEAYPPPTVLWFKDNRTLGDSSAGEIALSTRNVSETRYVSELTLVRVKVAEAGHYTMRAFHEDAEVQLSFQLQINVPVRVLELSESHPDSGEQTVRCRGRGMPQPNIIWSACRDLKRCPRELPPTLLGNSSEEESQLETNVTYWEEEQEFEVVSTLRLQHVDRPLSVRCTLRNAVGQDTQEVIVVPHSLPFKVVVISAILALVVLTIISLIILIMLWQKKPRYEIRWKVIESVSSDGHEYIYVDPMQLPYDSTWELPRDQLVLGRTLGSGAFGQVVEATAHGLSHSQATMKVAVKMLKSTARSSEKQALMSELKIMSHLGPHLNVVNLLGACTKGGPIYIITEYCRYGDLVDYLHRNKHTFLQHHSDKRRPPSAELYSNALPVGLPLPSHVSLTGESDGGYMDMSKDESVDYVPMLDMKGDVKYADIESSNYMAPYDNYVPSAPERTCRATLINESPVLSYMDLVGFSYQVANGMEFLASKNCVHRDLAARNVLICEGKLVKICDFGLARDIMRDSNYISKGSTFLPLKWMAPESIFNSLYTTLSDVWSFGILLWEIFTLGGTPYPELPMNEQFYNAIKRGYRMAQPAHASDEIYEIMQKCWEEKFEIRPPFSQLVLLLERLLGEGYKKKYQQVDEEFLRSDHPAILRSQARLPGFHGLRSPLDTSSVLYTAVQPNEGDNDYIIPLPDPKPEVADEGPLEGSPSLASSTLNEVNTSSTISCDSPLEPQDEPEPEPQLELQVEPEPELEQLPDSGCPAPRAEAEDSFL
Chain of Myc-GyrB-FGFR fusion protein (P11362 478-767 limits assumed): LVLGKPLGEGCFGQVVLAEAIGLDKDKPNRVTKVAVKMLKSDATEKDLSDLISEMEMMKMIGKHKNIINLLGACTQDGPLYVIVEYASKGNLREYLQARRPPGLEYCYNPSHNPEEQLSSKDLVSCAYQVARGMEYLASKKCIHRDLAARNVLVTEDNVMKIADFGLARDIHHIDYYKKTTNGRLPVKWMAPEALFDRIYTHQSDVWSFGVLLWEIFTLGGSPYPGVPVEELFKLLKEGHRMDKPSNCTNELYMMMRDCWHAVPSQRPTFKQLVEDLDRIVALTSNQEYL

Structure (SMILES) | IC50 [1] [µM] | IC50 (PDGFR-β) [µM] | IC50 (human flk-1) [µM] | IC50 (flkGST) [nM]
Nc1ccc2c(c1)/C(=C/c1cc3ccccc3[nH]1)C(=O)N2 [Example 160, 5-Amino-3-(1H-indol-2-ylmethylene)-1,3-dihydro-indol-2-one] | 5.27 | 2.72 | 1.53 | 120
COc1ccccc1-c1ccc2c(c1)NC(=O)/C2=C\c1[nH]c2c(c1CCC(=O)O)CCCC2 [Example 207, 3-{2-[6-(2-Methoxyphenyl)-2-oxo-1,2-dihydro-indol-3-ylidenemethyl]-4,5,6,7-tetrahydro-1H-indol-3-yl}-propionic acid] | 7.7 | 0.87 | 2.72 | 1500

Second part, the compound after the results:

IC50 [1] [µM] | IC50 (PDGFR-β) [µM] | IC50 (human flk-1) [µM] | IC50 (flkGST) [nM] | Structure (SMILES)
> 20 | > 100 | 10.7 |  | Cc1cccc2c1/C(=C/c1[nH]c3ccccc3c1C)C(=O)N2 [Example 170, 4-Methyl-3-(3-methyl-1H-indol-2-ylmethylene)-1,3-dihydroindol-2-one]
> 20 | 25.1 | 2.1 | < 8 | O=C1Nc2ccc(C(=O)O)cc2/C1=C/c1cc2ccccc2[nH]1 [Example 161, 3-(-1H-Indol-2-ylmethylene)-2-oxo-2,3-dihydro-1H-indole-5-carboxylic acid]
> 20 | > 100 | 15.8 |  | Cc1c(/C=C2\C(=O)Nc3ccc(Br)cc32)[nH]c2ccccc12 [Example 169, 5-bromo-3-(3-methyl-1H-indol-2-ylmethylene)-1,3-dihydro-indol-2-one]

Source: patent US6855730B2, “3-methylidenyl-2-indolinone modulators of protein kinase” (Sugen, Inc., priority 1998, dated 2005)
